In patent US12521396B2, “Pharmaceutical compositions comprising a MENIN inhibitor” (Kura Oncology, Inc., priority 2023, dated 2026):

How the values were obtained:
[1] = Excipient compatibility and formulation stability studies; format: physicochemical; details: excipient compatibility studies for tablet formulations
Excerpt: Compound 1 drug substance may have a low bulk density, small particle size, and needle-like morphology, all leading to poor flowability. Dry granulation using roller compaction was improved the powder flow and bulk density characteristics to enable capsule-filling. In addition, while glidants such as talc and colloidal silicon dioxide were not effective in improving powder flow and bulk density characteristics, mannitol and microcrystalline cellulose fillers improved the blend flow in the roller compactor.
In particular, these studies indicated less risk of instability in the presence of lactose as a diluent compared to mannitol.

[2] = Solid form stability on standing after recrystallization from MEK/IPA; format: physicochemical; details: recrystallized from MEK/IPA at 40° C., filtered at 25° C.
Procedure: Preparation A: Amorphous Compound 1 (prepared as described in U.S. Pat. No. 10,781,218, which is herein incorporated by reference in its entirety) was dissolved in 1:1 MEK/IPA v/v (4.5 mL/g) at ˜50-65° C. under N2. The solution was cooled to 33-37° C. Seed crystals were added (0.8-1.2 wt % relative to Compound 1) and the mixture was stirred for 4-6 h at 33-37° C. The mixture was cooled to 23-27° C. over 3-4 hours and stirred for 16-24 hours. Isopropanol (8.6-9.1 mL/g Compound 1) was added at 23-27° C. over 9-11 hours and then the mixture was stirred for 5-6 hours. The mixture was cooled to 3-8° C. over 4-6 hours and stirred for at least 24 hours. The resulting solid precipitate was collected at 5° C. The filter cake was rinsed with IPA (1.8-2.1 mL/g Compound 1) at 3-8° C. and dried under vacuum at 45-55° C. for 24-32 hours. XRPD analysis confirmed the isolated material as crystalline Compound 1, Form 1. Purity of 99.5% by HPLC and total residual solvents was about 0.4% wt by ^1H NMR. Recrystallization of Compound 1, Form 1, in MEK/IPA (6 v/12 v) by dissolving in MEK and adding IPA in portions at 25° C., stirring the suspension after addition of each IPA portion, cooling to 5° C., and stirring at 5° C. for 20 h produced a wet cake that was a mixture of two crystalline forms (Form 2 and Form 5) that were not Form 1. […]

Row | SMILES | Stability of Compound 1 with excipients [1] | Solid form stability upon standing [2]
1 | CNc1nc(NC2CCN(Cc3ccc4c(cc(C#N)n4C[C@H](C)N4CCN(S(C)(=O)=O)CC4)c3C)CC2)c2cc(CC(F)(F)F)sc2n1 [Compound 1, (S)-4-methyl-5-((4-((2-(methylamino)-6-(2,2,2-trifluoroethyl)thieno[2,3-d]pyrimidin-4-yl)amino)piperidin-1-yl)methyl)-1-(2-(4-(methylsulfonyl)piperazin-1-yl)propyl)-1H-indole-2-carbonitrile] | impact to Compound 1 stability with certain excipients | 
2 | CNc1nc(NC2CCN(Cc3ccc4c(cc(C#N)n4C[C@H](C)N4CCN(S(C)(=O)=O)CC4)c3C)CC2)c2cc(CC(F)(F)F)sc2n1 [Form 1, (S)-4-methyl-5-((4-((2-(methylamino)-6-(2,2,2-trifluoroethyl)thieno[2,3-d]pyrimidin-4-yl)amino)piperidin-1-yl)methyl)-1-(2-(4-(methylsulfonyl)piperazin-1-yl)propyl)-1H-indole-2-carbonitrile] |  | converted to Form 5
